According to US20250257095A1, “METHOD FOR VISIBLE LIGHT-MEDIATED CHEMICAL MODIFICATION OF POLYPEPTIDE AND PROTEIN BASED ON CYSTEINE” (SHANGHAI JIAO TONG UNIVERSITY, priority 2022, published 2025):

Assay: Plasma stability test (incubation in plasma at 37° C., LC-MS/MS)
Assay type: in vitro ADME
Conditions: 2 h later; for metabolised at 2 h, 5 μg/mL: read-out: compound degraded in plasma
Protocol: About 3 μL of a 500 μg/mL compound was taken and added to 297 μL of plasma. Incubation was conducted at 37° C. for 0 h to 3 h. 20 μL of a sample was collected at 1 min, 10 min, 30 min, 60 min, and 120 min. Then 100 μL of acetonitrile was added to precipitate proteins. Then 1 μL of a sample was collected and tested by liquid chromatography-tandem triple quadrupole mass spectrometer (LC-MS/MS) to determine a downward response of the compound in the plasma. The stability of the compound in the plasma could be quantified through plotting.

compound degraded in plasma	metabolised at 2 h, 5 μg/mL [%]	Structure (SMILES)
not observed		COC(=O)[C@H](CCC(=O)c1ccccc1)NC(=O)[C@H](Cc1ccccc1)NC(=O)OC(C)(C)C [DP-04]
not observed		COC(=O)[C@H](CCC(=O)c1ccccc1)NC(=O)[C@H](CCCCNC(=O)OC(C)(C)C)NC(=O)OCc1ccccc1 [DP-11]
	~14	CCN1C(=O)CC(SC[C@@H](NC(=O)[C@@H](Cc2ccccc2)NC(=O)OC(C)(C)C)C(=O)O)C1=O (stereo partly shown) [compound 1]
	~1.5	CCN1C(=O)CC(SC[C@@H](NC(=O)[C@@H](CCCCNC(=O)OC(C)(C)C)NC(=O)OCc2ccccc2)C(=O)O)C1=O (stereo partly shown) [compound 2]
